The results in this text go back to PMC7168264, “Modified Aminoglycosides Bind Nucleic Acids in High-Molecular-Weight Complexes” (Antibiotics, 2020).

One assay concerns the target T1, HIV-1 RT Y181C (Human immunodeficiency virus type 1 group M subtype B, UniProt P04585, Y768C).
T1 construct: overexpress HIV-1 RT subunits p66 and His6-tagged p51; made in house; host or cells: E. coli BL21/DE3 (p66) and DH5α (His6-p51)
The experiment in a line: Multi-nucleotide primer extension assay, Y181C HIV-1 RT. The format is biochemical. As for the experimental part:
(§1) Plasmids pET-RT66 and p6H-RT51, which overexpress HIV-1 RT subunits p66 and His6-tagged p51, were generously provided by Samuel Wilson (NIH). Mutations K103N and Y181C were each introduced into pET-RT66 using QuikChange^TM mutagenesis. Subunits p66 and His6-p51 were overproduced in E. coli strains BL21/DE3 and DH5α, respectively, and the RT heterodimer (WT or mutant forms) was reconstituted in mixed lysates and purified essentially as described. Each overexpression strain was grown in LB medium with appropriate antibiotics at 37 °C until the culture reached an OD600 of 0.6, IPTG (0.5 mM) was added, and the culture was further incubated for 3.5 h to allow ample protein production. Cells (from 4 L culture) were pelleted and stored at −20 °C. All subsequent steps were performed at 4 °C. Each cell pellet was resuspended in 20 mL buffer A [50 mM Tris-HCl (pH 7.9), 60 mM NaCl, 10% glycerol, 1 mM βME, and protease inhibitors (Protease Inhibitor Cocktail, Roche Diagnostics)], and the cells were lysed using a French Press. The lysate was clarified by centrifugation at 5900 g for 15 min, and the protein concentration of each lysate was estimated using the Bradford assay. Based on these estimates, each p66 strain lysate was separately mixed with p51 strain lysate in a 3:1 ratio. Each mixture was passed through a Q-Sepharose column (2 mL, Bio-Rad), pre-equilibrated with buffer A, and the flow-through (containing HIV-1 RT) was collected. NaCl (0.5 M), imidazole (10 mM), and 4 mL of His-Bind nickel column resin (Ni-NTA Agarose, QIAGEN) pre-equilibrated in buffer B [50 mM Tris-HCl (pH 7.9), 500 mM NaCl, 10 mM imidazole, 10% glycerol, and 1 mM βME] were added, and the mixture was rotated for 1 h. The resin was poured into a column and washed with 10 column volumes (CV) of buffer B, 10 CV of buffer C [50 mM Tris-HCl (pH 7.9), 1 M NaCl, 10 mM imidazole, 10% glycerol, and 1 mM βME], and 10 CV of buffer D [50 mM Tris-HCl (pH 7.9), 1 M NaCl, 15 mM imidazole, 10% glycerol, and 1 mM βME]. Proteins were eluted from the column with an imidazole gradient (10–500 mM) in buffer B. Fractions (0.5 mL) were collected, and DTT (2 mM) and EDTA (5 mM) were added to each fraction. Fractions were analyzed by SDS-PAGE, and those containing p66 and p51 at a 1:1 ratio were pooled. The RT was further purified using a FPLC RESOURCE S column (6 mL, GE Healthcare). The protein was bound to the column, washed with 10 CV of buffer E [50 mM Tris-HCl (pH 6.5), 60 mM NaCl, 10% glycerol, and 1 mM βME], and eluted using a NaCl gradient. Fractions (0.5 mL) containing purified RT with p66 and p51 subunits at a 1:1 ratio were pooled, dialyzed against buffer F [50 mM Tris-HCl (pH 7.5), 100 mM NaCl, 1 mM βME, and 10% glycerol], and stored at −20 °C.
(§2) To assay multi-nucleotide incorporation by RT, 5′-[^32P]-labeled primer (~0.05 µM) was annealed to mRNA (0.33 µM, unless otherwise indicated), RT (HIV-1 or AMV; 32 nM) and the four deoxynucleotide triphosphates (dNTPs; 375 µM each) in buffer G [10 mM Tris-HCl (pH 7.5), 60 mM NH4Cl, 10 mM MgCl2, and 6 mM βME] were added, in the absence or presence of inhibitor (as indicated), and reactions were incubated at 37 °C for 10 min. An equal volume of stop buffer (95% formamide, 20 mM EDTA, 0.05% xylene cyanol, and 0.05% bromophenol blue) was added, and products were analyzed by denaturing 7% PAGE. The relative amount of the full-length cDNA product (y) was plotted as a function of inhibitor concentration, and the data were fit to the modified dose response equation y = a + b/[1 + (x/c)]

For assay [1], the system named is avian myeloblastosis virus (AMV) reverse transcriptase (RT). Briefly: Multi-nucleotide primer extension assay, AMV RT. The format is biochemical. Conditions: primer extension on RNA template, 10 min at 37 °C; read-out: IC50, full-length cDNA product, AMV RT. As for the experimental part: as §2
The next assay addresses HIV-1 RT WT (Human immunodeficiency virus type 1 group M subtype B, UniProt P04585). The experiment in a line: biochemical. As for the experimental part: as §1, §2
In the next assay the target is T2, HIV-1 RT K103N (Human immunodeficiency virus type 1 group M subtype B, UniProt P04585, K690N).
T2 construct: overexpress HIV-1 RT subunits p66 and His6-tagged p51; made in house; host or cells: E. coli BL21/DE3 (p66) and DH5α (His6-p51)
Briefly: Multi-nucleotide primer extension assay, K103N HIV-1 RT. Type of assay: biochemical. Conditions: mean ± SEM from 3 or more independent experiments. As for the experimental part:
as §1, §2

In another assay the test system is AMV RT. Briefly: Single-nucleotide incorporation kinetics (quench-flow), AMV RT. Type of assay: biochemical, avian myeloblastosis virus. The following applies: read-out: IC50, amplitude of single-nucleotide incorporation. As for the experimental part: (§3) Single-nucleotide incorporation by RT was measured using a quench-flow machine (KinTek RQF-3). Typically, 5′-[^32P]-labeled primer (<0.05 µM) was annealed to mRNA (0.2 µM), equilibrated in buffer H [Tris-HCl (pH 7.5), 80 mM KCl, 20 mM MgCl2, 2 mM DTT] with RT (AMV or HIV-1, as indicated) in the absence or presence of inhibitor (as indicated), and rapidly mixed with dATP (variable concentration, as indicated). Each reaction was quenched with 0.5 M EDTA at various time points; the data were plotted and fit to a single exponential equation to obtain observed rate and amplitude.

A further assay addresses T3, HIV-1 RT (Human immunodeficiency virus type 1 group M subtype B, UniProt P04585).
T3 construct: overexpress HIV-1 RT subunits p66 and His6-tagged p51; made in house; host or cells: E. coli BL21/DE3 (p66) and DH5α (His6-p51)
The experiment in a line: Order-of-addition single-nucleotide incorporation, HIV-1 RT. The format is biochemical. Conditions: 20 min 37 °C, then combined 1 min. As for the experimental part:
as §3

Assay [2] has as its target Radiolabeled RNA oligonucleotide. Briefly: Ultrafiltration binding experiment, RNA oligonucleotide. Conditions: fraction in complexes >300 kDa by ultrafiltration (300 kDa MWCO), buffer H, 25 °C, 15 min, read-out: apparent KD, RNA oligonucleotide. As for the experimental part:
(§4) For binding reactions, components were incubated in buffer H at 25 °C for 15 min. The fraction of bound 5′-[^32P]-labeled nucleic acid was evaluated using native 6% PAGE or ultrafiltration devices (Nanosep Omega, PALL Life Sciences).

In assay [3] the test system is radiolabeled 18mer DNA oligonucleotide. The experiment in a line: Gel mobility shift experiment (native PAGE). Type of assay: binding. The following applies: compound 100 µM preincubated with 18mer DNA, native gel electrophoresis. As for the experimental part:
as §4

The target of assay [4] is Radiolabeled DNA oligonucleotide. The experiment in a line: Ultrafiltration binding experiment, DNA oligonucleotide. The following applies: fraction in complexes >300 kDa by ultrafiltration (300 kDa MWCO), buffer H, 25 °C, 15 min, read-out: apparent KD, DNA oligonucleotide. As for the experimental part:
as §4

The structures appear in SMILES notation. “And” between values parts separate entries of the source, which are not always exact repeats. Equal values may be shown once. Read-outs that look alike come from different tables or passages of the source.

In the case of `NC[C@H]1O[C@H](O[C@H]2[C@H](O)[C@@H](O[C@H]3O[C@H](CSc4ccc5ccccc5c4)[C@@H](O)[C@H](N)[C@H]3O)[C@H](N)C[C@@H]2N)[C@H](N)C[C@@H]1O` [TOB-Nap], the IC50 was 12000 ± 4000 nM at HIV-1 RT Y181C, 23000 nM in [1], 40000 ± 5000 nM against HIV-1 RT WT and 40 ± 11 µM against HIV-1 RT K103N.

As for `CCCCCCCCSC[C@H]1O[C@H](O[C@@H]2[C@@H](O)[C@H](O[C@H]3O[C@H](CN)[C@@H](O)[C@H](O)[C@H]3N)[C@@H](N)C[C@H]2N)[C@H](O)[C@@H](N)[C@@H]1O` [KANB-C8], the IC50 worked out at 8000 ± 2000 nM against HIV-1 RT Y181C, 8000 ± 3000 nM against HIV-1 RT WT and 7 ± 1 µM at HIV-1 RT K103N.

As for `CCCCCCCCCCCCSC[C@H]1O[C@H](O[C@@H]2[C@@H](O)[C@H](O[C@H]3O[C@H](CN)[C@@H](O)C[C@H]3N)[C@@H](N)C[C@H]2N)[C@H](O)[C@@H](N)[C@@H]1O` [TOB-C12], the IC50 against HIV-1 RT Y181C was 500 ± 100 nM; in assay [1] it was ~1000 nM and 1600 nM; with AMV RT (dATP at 10 µM), 13000 nM; in the assay with AMV RT (dATP at 150 µM) it was 17000 nM; against HIV-1 RT WT, 300 ± 100 nM; on HIV-1 RT K103N, 0.6 ± 0.1 µM. The “Product formation, single-nucleotide incorporation” value on HIV-1 RT (compound preincubated with RT) is on record as “hindered product formation to a lesser degree”; at HIV-1 RT (compound preincubated with primer:template in the absence of RT), “no detectable product”.

On to `CCCCCCCCCCCCCCSC[C@H]1O[C@H](O[C@@H]2[C@@H](O)[C@H](O[C@H]3O[C@H](CN)[C@@H](O)C[C@H]3N)[C@@H](N)C[C@H]2N)[C@H](O)[C@@H](N)[C@@H]1O` [TOB-C14], for which the IC50 on HIV-1 RT Y181C was 1400 ± 400 nM; in [1], ~1000 nM and 1100 nM; on HIV-1 RT WT, 1900 ± 300 nM; against HIV-1 RT K103N, 1.2 ± 0.6 µM.

Take `CCCCCCCCCCSC[C@H]1O[C@H](O[C@@H]2[C@@H](O)[C@H](O[C@H]3O[C@H](CN)[C@@H](O)[C@H](O)[C@H]3N)[C@@H](N)C[C@H]2N)[C@H](O)[C@@H](N)[C@@H]1O` [KANB-C10]: the IC50 turned out to be 1000 ± 600 nM at HIV-1 RT Y181C, 3800 ± 300 nM at HIV-1 RT WT and 1.9 ± 0.3 µM against HIV-1 RT K103N.

Turning to `CCCCCCCCCCCCSC[C@H]1O[C@H](O[C@@H]2[C@@H](O)[C@H](O[C@H]3O[C@H](CN)[C@@H](O)[C@H](O)[C@H]3N)[C@@H](N)C[C@H]2N)[C@H](O)[C@@H](N)[C@@H]1O` [KANB-C12], the IC50 on HIV-1 RT Y181C was 500 ± 300 nM; against HIV-1 RT WT, 1900 ± 300 nM; against HIV-1 RT K103N, 2 ± 0.2 µM. The Kd in assay [2] (listed as KAN-C12) was 1100 nM; in assay [2] it was around 1000 nM; in assay [4] (listed as KAN-C12), 600 nM; in [4] it was around 1000 nM. Also, in assay [3], the “Gel mobility shift of oligonucleotide” value was “all signal was shifted to the well”.
